US7705016B2, “Regulation of food intake by modulation of long-chain fatty acyl-CoA levels in the hypothalamus” (Albert Einstein College of Medicine of Yeshiva University, priority 2003, dated 2010)

Biological target: T1, hypothalamic CPT1 (Rattus norvegicus, UniProt P32198)
T1 sequence (P32198 1-773): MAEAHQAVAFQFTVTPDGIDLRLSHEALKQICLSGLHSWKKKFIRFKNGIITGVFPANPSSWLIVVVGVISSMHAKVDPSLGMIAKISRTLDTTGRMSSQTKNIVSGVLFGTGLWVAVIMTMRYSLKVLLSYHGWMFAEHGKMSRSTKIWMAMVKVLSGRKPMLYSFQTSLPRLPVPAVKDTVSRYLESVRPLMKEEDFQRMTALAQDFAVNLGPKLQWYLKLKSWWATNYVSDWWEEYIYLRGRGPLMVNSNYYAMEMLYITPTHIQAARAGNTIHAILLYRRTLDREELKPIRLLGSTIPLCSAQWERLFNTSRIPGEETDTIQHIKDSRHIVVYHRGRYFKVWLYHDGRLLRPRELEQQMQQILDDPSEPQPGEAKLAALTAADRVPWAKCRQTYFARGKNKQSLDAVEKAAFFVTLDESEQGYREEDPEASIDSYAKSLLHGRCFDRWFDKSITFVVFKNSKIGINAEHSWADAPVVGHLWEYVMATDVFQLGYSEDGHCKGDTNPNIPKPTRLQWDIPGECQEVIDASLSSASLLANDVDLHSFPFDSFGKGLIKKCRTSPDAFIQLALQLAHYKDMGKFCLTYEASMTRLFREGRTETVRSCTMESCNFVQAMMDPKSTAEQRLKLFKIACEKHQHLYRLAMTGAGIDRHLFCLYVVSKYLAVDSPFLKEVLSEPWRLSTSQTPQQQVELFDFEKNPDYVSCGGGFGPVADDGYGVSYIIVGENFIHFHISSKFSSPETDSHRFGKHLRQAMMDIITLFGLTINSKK
Assay: ICV infusion with pancreatic-insulin clamp, glucose kinetics (Example 1)
Assay type: in vivo
Parameters: CPT1 activity was measured in the particulate fraction of protein extracts from animals treated with ICV control injections; from tissue; host or cells: hypothalamus (arcuate nucleus) of male Sprague-Dawley rats, in vivo or ex vivo; Insulin (iU/ml): unit not given here
Conditions: for Food Intake: measured prior to acute ICV infusion, except CPT1L-Ribo group (3 days after ICV); for decrease in glucose production (GP): basal and equal insulin levels (~20 μU/ml), ICV; for glucose production (GP) during pancreatic clamp vs ICV vehicle controls: ~basal insulin concentrations, p<0.01
Protocol: Hypothalamic inhibition of CPT1 inhibits glucose production. Experiments were also designed to examine the effect of central inhibition of CPT-1 on whole body insulin action (FIG. 4a,b). Insulin action was assessed by a combination of ICV infusions with systemic pancreatic-insulin clamp studies (FIG. 4b). In these studies, the daily food intake was matched in the rats receiving ICV vector and ICV CPT1L-Ribo (Table 1). All rats also received an intra-arterial infusion of [3-^3H]-glucose for the last 4 hr of ICV infusion and a pancreatic/insulin clamp (insulin 1 mU/kg.min; somatostatin 3 μg/kg/min) during the last 2 hr of the study (Obici et al., 2002a; Obici et al., 2001). As expected in the presence of ˜basal circulating insulin levels (clamp procedure; Table 1), the rate of glucose infusion (GIR) required to maintain euglycemia was marginal in ICV control studies (vector-ST1340- or vehicle-infused animals; ˜0.8 mg/kg/min). By contrast, following ICV infusion of inhibitors of CPT-1 expression or activity glucose had to be infused at the rate of ˜5 mg/kg/min in order to prevent hypoglycemia. Thus, central inhibition of CPT-1 activity in the presence of fixed and basal insulin concentrations stimulates insulin action on glucose homeostasis.
Animal preparation for in vivo experiments. We studied ninety-three 10-week old male Sprague-Dawley rats (Charles River Breeding Laboratories, Wilmington, Mass.). Rats were housed in individual cages and subjected to a standard light-dark cycle. Three weeks prior to the in vivo studies, we placed a chronic catheter in the third cerebral ventricle by stereotaxic surgery (Obici et al., 2002a; Obici et al., 2001; Liu et al., 1998). One week before the pancreatic-insulin clamp protocols, we placed additional catheters in the right internal jugular and left carotid artery (Obici et al., 2001; Liu et al., 1998). All ICV solutions were dissolved in artificial cerebral spinal fluid (aCSF). Food intake was monitored daily.
Measurements of in vivo glucose kinetics and pancreatic-insulin clamp procedure. The infusion studies lasted a total of 360 min (FIG. 3a). Briefly, at t=0 min a primed-continuous ICV infusion of either CPT1 inhibitors or control solution was initiated and maintained for the remainder of the study. 2-tetradecylglydate (TDGA, a gift from Dr. Manuel Guzman) was dissolved in DMSO, diluted into aCSF (Harvard Apparatus) and infused ICV at a rate of 50 pmoles/hr. […] Prior to the pancreatic-insulin clamp studies, rats receiving ICV injection of either CPT1L-Ribo or vector control three days prior to the clamp procedure were randomized into two pair-fed experimental groups. A primed-continuous infusion of HPLC-purified [3-^3H]-glucose (New England Nuclear, Boston, Mass.; 40 μCi bolus, 0.4 μCi/min) was started at t=120 min and continued for the duration of the study (Obici et al., 2002a; Obici et al., 2001; Liu et al., 1998). Finally, a pancreatic-insulin clamp (Obici et al., 2002a; Obici et al., 2001; Liu et al., 1998) was initiated at t=240 min and lasted for 2 hours. This procedure involved the infusion of somatostatin (3 μg/kg/min), insulin (1 mU/kg/min), and glucose as needed to prevent hypoglycemia, or antibodies against C peptide (Linco) and Melanocortin Receptor type 2 (Chemicon). The rate of insulin infusion was designed to replace normal basal levels in postabsorptive rats.
Radioactivity of [^3H]glucose in plasma was measured from supernatants of Ba(OH)2 and ZnSO4 precipitates after evaporation to dryness for the removal of tritiated water (Somogyi pellet). The specific activity of tritiated water in plasma (Somogyi filtrate) was determined from the total counts of the protein-free supernatant before and after evaporation to dryness. Under steady state conditions for plasma glucose concentration, the rate of glucose disappearance (Rd) equals the rate of glucose appearance (Ra). […]

| Insulin (Basal) | Leptin (Basal) | Molecule | Body wt. (Basal) | FFA (Basal) | Glucose (Basal) | Food Intake (Basal) | FFA (Clamp, steady-state) | Glucose (Clamp, steady-state) | Insulin (iU/ml) (Clamp, steady-state) | decrease in glucose production (GP) | glucose production (GP) during pancreatic clamp vs ICV vehicle controls |
| --- | --- | --- | --- | --- | --- | --- | --- | --- | --- | --- | --- |
| 1.4 ± 0.2 ng/mL | 0.9 ± 0.1 ng/mL | CCCCCCCCCCCCCCNC(=O)N[C@H](CC(=O)[O-])C[N+](C)(C)C [ST1326, (R)-N-(tetradecylcarbamoyl)-aminocarnitine] | 302 ± 4 g | 0.5 ± 0.1 mM | 8.1 ± 0.7 mM | 21 ± 2 g | 0.4 ± 0.1 mM | 8.1 ± 0.8 mM | 21 ± 2 | 44±7% | markedly inhibited GP |
|  |  | CPT1L-Ribo: plasmid (pTarget, CMV promoter) expressing a hammerhead ribozyme that specifically cleaves rat CPT1L mRNA, complexed to PEI for ICV injection (DNA CUGUACCAAAGAGCUGUAGAGUCCGUGAGGACGAAACGCCGCUCACAAUG) | 277 ± 8 g | 0.5 ± 0.1 mM | 8.2 ± 0.6 mM | 14 ± 2 g | 0.4 ± 0.1 mM | 8.1 ± 0.5 mM | 21 ± 2 | 30±3% | markedly inhibited GP |
